Columns and labels:
Assay type in all cases: biochemical
[1] = tested on: α-chymotrypsin (CT), free enzyme (free CT); assay: Kinetic constants by hydrolysis of MUTMAC, free enzyme (Free-CT)
Procedure: (§1) The kinetic constants of SEEN-CT (Example 1), RM-SEEN-CT (Comparative Example 1) and free enzyme (free CT) were measured by hydrolysis of MUTMAC. The values were obtained by nonlinear regression based on the least square method.

[2] = tested on: α-chymotrypsin (CT), silica encapsulated single-enzyme nanoparticles SEEN-CT (Example 1); assay: Kinetic constants by hydrolysis of MUTMAC, silica encapsulated single-enzyme nanoparticles SEEN-CT (Example 1)
Procedure: Silica encapsulated single-enzyme nanoparticles were prepared using α-chymotrypsin (CT) as schematically described in FIG. 1. Specifically, the synthesis of the silica encapsulated single-enzyme nanoparticles began with dissolution of the enzyme in an aqueous solution with an organic solvent. CT was dissolved in a 10 mM Bis-Tris propane (pH 7.8) buffer containing 1% isopropanol and 2 mM calcium chloride to a concentration of 1 mg/mL. Subsequently, 2 mM AOT added to hexane of the same volume was mixed with the enzyme solution. After stirring at room temperature for 15 minutes, phase separation was conducted through centrifugation. Only the hexane layer containing the solubilized enzyme was separated and then hexane was evaporated using nitrogen gas to adjust the concentration to 1 mg/mL.
Next, a mixture solution of TMOS:hexane (1:1) was added to the enzyme-containing hexane solution with a volume of 1% thereof and stored at 4° C. for 17 hours.
Then, after storing for 1.5 hours at room temperature and adding a 200 mM sodium phosphate buffer (pH 7.8) corresponding to 2 times the volume of the hexane, the mixture was stirred at 250 rpm for 10 minutes. After phase separation occurred through centrifugation, only the aqueous solution layer was separated. Then, impurities were filtered off through a 100-nm filter.
Subsequently, the enzyme extracted into the aqueous solution phase was stored at 4° C. for 3 days. After the 3 days, unreacted TMOS and AOT molecules were removed while replacing with a 10 mM sodium phosphate buffer using an ultrafiltration device. The as-synthesized silica encapsulated single-enzyme nanoparticles were stored at 4° C. until use.
as §1

[3] = tested on: α-chymotrypsin (CT), reverse micelle-silica encapsulated single-enzyme nanoparticles RM-SEEN-CT (Comparative Example 1); assay: Kinetic constants by hydrolysis of MUTMAC, reverse micelle-silica encapsulated RM-SEEN-CT (Comparative Example 1)
Procedure: Hexane containing 100 mM AOT as surfactant, and a small amount of a 10 mM Bis-Tris propane buffer containing enzymes were added. The amount of the added aqueous solution was adjusted such that its molar concentration was 20 times that of AOT. Then, the enzymes were solubilized to hexane by stirring for 10 minutes. The procedure following the solubilization of the enzymes in hexane was similar to Example 1.
In the reverse micelle method, which was employed for comparison with the method for manufacturing silica encapsulated single-enzyme nanoparticles according to the present disclosure, condensation of the silica precursor proceeds faster because more water molecules are present around the enzyme. As a result, a thicker silica network will be formed and the Michaelis-Menten constant may increase.
as §1

[4] = nonlinear regression, least square method
[5] = SEEN-CT, hydrolysis of MUTMAC, nonlinear regression, least square method
[6] = RM-SEEN-CT, hydrolysis of MUTMAC, nonlinear regression, least square method

kcat/Km [1]: 7.6 ± 0.2 × 10^5M^−1s^−1
Km [1, 4]: 41.8 ± 0.1 µM
kcat [1, 4]: 31.8 ± 0.8 s⁻¹
decrease of catalytic efficiency, kcat/Km, as compared to free CT ([2]; SEEN-CT as compared to free CT): 21%
kcat/Km ([2]; SEEN-CT, hydrolysis of MUTMAC): 6.0 ± 0.1 × 10^5M^−1s^−1
Km [2, 5]: 42.4 ± 0.1 µM
kcat [2, 5]: 25.4 ± 0.1 s⁻¹
decrease of catalytic efficiency, kcat/Km, as compared to free CT ([3]; RM-SEEN-CT as compared to free CT): about 48%
kcat/Km ([3]; RM-SEEN-CT, hydrolysis of MUTMAC): 3.9 ± 0.1 × 10^5M^−1s^−1
Km [3, 6]: 76.8 ± 3.6 µM
kcat [3, 6]: 30.3 ± 0.8 s⁻¹
Structure (SMILES): Cc1cc(=O)oc2cc(OC(=O)/C=C/c3ccc([N+](C)(C)C)cc3)ccc12 [MUTMAC]

— US9458448B2, “Manufacturing method for silica encapsulated single-enzyme nanoparticles and single-enzyme nanoparticles manufactured by means of method” (Korea University Research and Business Foundation, priority 2011, dated 2016)
